One series deals with MDA-MB-231. The series can be described thus: Antiproliferative activity, MTT assay. It counts as cell-based, human. Conditions: Homo sapiens, MDA-MB-231; MTT, 72 h; standard deviations within 50%. As for the experimental part:
(§1) Human breast cancer MCF7, MDA-MB-231, SkBr-3 (purchased from the ATCC collection), human keratinocytes HaCaT, murine fibroblasts L929 and macrophages J774 cells (Collection of Shemyakin-Ovchinnikov Institute of Bioorganic Chemistry RAS) were cultured in standard DMEM or RPMI-1640 medium (ThermoScientific, Waltham, MA, USA) supplemented with 10% fetal bovine serum (FBS, Cytiva, Marlborough, MA, USA) at 37 °C, 5 % CO2 and 80–85% humidity (NuAir CO2 incubator). The cell growth was evaluated by MTT (3-[4,5-dimethylthiazol-2-yl]-2,5-diphenyltetrazolium bromide) test. Cells were seeded at a density of 5 × 10^3 cells per well in 96-well flat-bottomed plates (TPP). The compounds were dissolved in DMSO (AppliChem) to 10 mM before the experiments, and then the resulting solutions were diluted by the medium to the required concentrations. Solutions of the tested compounds with different concentrations in 100 μL of the medium were added and the cells were grown for 72 h. MTT (10 μL/well, 5 mg/mL) was added for the final 3 h. The formazan purple crystals were dissolved in DMSO (100 μL per well). The absorbance of solutions was measured at 540 nm with a MultiScan reader (ThermoFisher). Results were analyzed by Excel package (Microsoft). The inhibition of proliferation (inhibitory index) was calculated as [1–(ODexperiment/ODcontrol)], where OD was MTT optical density. IC50 (Table 1) was determined as the concentration giving 50% of inhibition in the comparison with it […].

For another series, the system named is keratinocytes HaCaT. The series can be described thus: Antiproliferative activity, MTT assay. The class given is cell-based. Conditions: Homo sapiens, 72 h, standard deviations within 50%. As for the experimental part: as §1
A general note: Formazan colour is commonly taken as a measure of viable cells.

A further series has as its system MCF7. The series can be described thus: Antiproliferative activity, MTT assay. The class given is cell-based. Conditions: Homo sapiens, 72 h, standard deviations within 50%. The protocol: as §1
The test system of the next series is fibroblasts L929. The series can be described thus: Antiproliferative activity, MTT assay. It counts as cell-based, murine. The conditions noted are these: Mus musculus, 72 h, standard deviations within 50%. As for the experimental part: as §1
The subject of a further series is macrophages J774. The series can be described thus: Antiproliferative activity, MTT assay. The conditions noted are these: Mus musculus, 72 h, standard deviations within 50%. It counts as cell-based, murine. As for the experimental part: as §1
The next series relates to SkBr-3 cells. The series can be described thus: Cell cycle analysis (PI-stained DNA, flow cytometry). The class given is cell-based, human. The protocol:
The cell cycle was analyzed using PI-stained DNA. Cells from the compounds 7 treated cultures were collected at 24, 48, and 72 h, trypsinized, washed in ice-cold PBS, fixed by the addition of 70% ethanol and left for 2 h at −20 °C. Thereafter, the cells were washed twice in PBS, stained with 50 μg/mL of propidium iodide (Sigma, Merck KGaA, Darmstadt, Germany) in PBS, treated with 10 µg/mL of RNAse and analyzed by flow cytometry using FACScan device (BD, USA). A total of 2000 events were collected. The results were analyzed using FlowJo 10 software (BD, Franklin Lakes, NJ, USA).
A general note: A flow cytometer gives signals particle by particle.

Series [1] concerns PI3K/Akt/mTOR signaling pathway in MCF7 cells. The series can be described thus: Immunoblotting of PI3K/Akt/mTOR phosphorylation. It counts as cell-based, human. Conditions: 500 nM. The protocol:
MCF7 cells were seeded onto 100 mm dishes (Corning) and cultivated for 24 h. Compound 7c was added at different concentrations while the reference compound wortmannin (Selleckchem, Houston, TX, USA) was used at 500 nM. The cells were harvested after 72 h of growth with the compounds. To prepare cell extracts, MCF7 cells were twice washed in phosphate buffer and incubated for 10 min on ice in the modified lysis buffer containing 50 mM Tris-HCl, pH 7.5, 0.5% Igepal CA-630, 150 mM NaCl, 1 mM EDTA, 1 mM DTT, 1 mM PMSF, 0.1 mM sodium orthovanadate and aprotinin, leupeptin, pepstatin (1 µg/mL each). The protein content was determined by the Bradford method. Cell lysates were separated in 10% SDS-PAGE under reducing conditions, transferred to a nitrocellulose membrane (GE HealthCare, Chicago, IL, USA), and processed according to a standard protocol. To prevent nonspecific absorption, the membranes were treated with 5% nonfat milk solution in TBS buffer (20 mM Tris, 500 mM NaCl, pH 7.5) with 0.1% Tween-20 and then incubated with primary antibodies (Cell Signaling Technology, Danvers, MA, USA) overnight at 4 °C. […] Signals were detected using the ECL reagent using the ImageQuant LAS4000 system (GE HealthCare, Chicago, IL, USA).
The signals of phospho-proteins to total ones were calculated using the ImageJ program from inverted images of the bands.
(Immunoblotting shows a protein as a band on a membrane.)

The subject of another series is MCF7 breast cancer cells. Also on record: method as in PMID 32825760. Conditions: read-out: Concentration causing 50% suppression of MCF7 cell growth; cited from earlier work.
Series [2] has as its target T1, recombinant PI3K (p110α/p85α) (Homo sapiens, UniProt P42336).
T1 construct: purchased Millipore 14-602
The series can be described thus: PI3K inhibition assay (HTRF). Conditions: FRET/HTRF detection; approximate; read-out: IC50 PI3Kα. It counts as biochemical. The protocol: The PI 3-Kinase (Class I) HTRF Assay Kit (Cat# 33-016 from Millipore) was used to determine the activity of recombinant PI3K (p110α/p85α) human (Cat# 14-602 from Millipore). The kit was supplemented with ATP (Cat# A26209 from Sigma-Aldrich, St. Louis, MI, USA), DL-dithiothreitol (Cat# S-[…]-1 from Sigma-Aldrich), and Wortmannin inhibitor (Cat# 12-338 from Millipore, Burlington, MA, USA). The latter was used at 0.1 μM concentration. For measurements, a Victor ×5 plate reader (PerkinElmer, 2030, Waltham, MA, USA) was used in TRF mode with excitation at 340 nm. Fluorescence emission was recorded at 613 and 670 nm in a 384-well plate (Cat# S-CLS3658 from Sigma-Aldrich) at a time interval of 150-350 μs. The enzymatic reaction and the determination of its products were carried out according to the recommendations of the reagent kit manufacturer (Millipore) in two wells for each sample. In calculations, readings in parallel wells were averaged. The calculations were made according to the recommendations of the equipment manufacturer.

What is called melting point is the temperature, or range, at which the solid turns liquid.

T1 sequence (P42336 whole entry): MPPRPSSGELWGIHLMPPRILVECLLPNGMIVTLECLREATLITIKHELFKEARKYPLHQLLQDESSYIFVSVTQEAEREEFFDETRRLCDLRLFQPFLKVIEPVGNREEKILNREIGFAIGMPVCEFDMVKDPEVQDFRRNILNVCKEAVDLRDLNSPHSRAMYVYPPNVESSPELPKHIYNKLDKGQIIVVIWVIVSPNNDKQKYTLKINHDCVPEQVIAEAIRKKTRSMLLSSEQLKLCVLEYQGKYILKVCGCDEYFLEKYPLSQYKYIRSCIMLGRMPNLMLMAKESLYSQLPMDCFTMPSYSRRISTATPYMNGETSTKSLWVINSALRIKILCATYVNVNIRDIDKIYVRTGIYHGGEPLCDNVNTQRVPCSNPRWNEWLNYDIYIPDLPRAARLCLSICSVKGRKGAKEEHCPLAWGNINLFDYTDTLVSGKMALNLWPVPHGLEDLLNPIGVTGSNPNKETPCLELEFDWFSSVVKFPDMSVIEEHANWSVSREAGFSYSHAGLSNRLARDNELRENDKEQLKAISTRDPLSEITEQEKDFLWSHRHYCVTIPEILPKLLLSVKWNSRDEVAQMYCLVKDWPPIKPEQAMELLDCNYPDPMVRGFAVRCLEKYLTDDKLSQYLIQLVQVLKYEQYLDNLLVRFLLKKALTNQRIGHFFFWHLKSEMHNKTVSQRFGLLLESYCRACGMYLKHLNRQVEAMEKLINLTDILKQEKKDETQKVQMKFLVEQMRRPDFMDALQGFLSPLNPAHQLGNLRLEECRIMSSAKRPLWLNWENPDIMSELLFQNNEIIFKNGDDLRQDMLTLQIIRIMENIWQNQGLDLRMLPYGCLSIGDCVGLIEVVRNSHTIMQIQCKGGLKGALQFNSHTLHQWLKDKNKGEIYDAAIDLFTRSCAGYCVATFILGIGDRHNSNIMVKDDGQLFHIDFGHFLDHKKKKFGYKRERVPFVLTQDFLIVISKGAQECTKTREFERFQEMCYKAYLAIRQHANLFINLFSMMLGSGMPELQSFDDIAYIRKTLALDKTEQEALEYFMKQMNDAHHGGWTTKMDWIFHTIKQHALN
T1 sequence (P27986 whole entry partner): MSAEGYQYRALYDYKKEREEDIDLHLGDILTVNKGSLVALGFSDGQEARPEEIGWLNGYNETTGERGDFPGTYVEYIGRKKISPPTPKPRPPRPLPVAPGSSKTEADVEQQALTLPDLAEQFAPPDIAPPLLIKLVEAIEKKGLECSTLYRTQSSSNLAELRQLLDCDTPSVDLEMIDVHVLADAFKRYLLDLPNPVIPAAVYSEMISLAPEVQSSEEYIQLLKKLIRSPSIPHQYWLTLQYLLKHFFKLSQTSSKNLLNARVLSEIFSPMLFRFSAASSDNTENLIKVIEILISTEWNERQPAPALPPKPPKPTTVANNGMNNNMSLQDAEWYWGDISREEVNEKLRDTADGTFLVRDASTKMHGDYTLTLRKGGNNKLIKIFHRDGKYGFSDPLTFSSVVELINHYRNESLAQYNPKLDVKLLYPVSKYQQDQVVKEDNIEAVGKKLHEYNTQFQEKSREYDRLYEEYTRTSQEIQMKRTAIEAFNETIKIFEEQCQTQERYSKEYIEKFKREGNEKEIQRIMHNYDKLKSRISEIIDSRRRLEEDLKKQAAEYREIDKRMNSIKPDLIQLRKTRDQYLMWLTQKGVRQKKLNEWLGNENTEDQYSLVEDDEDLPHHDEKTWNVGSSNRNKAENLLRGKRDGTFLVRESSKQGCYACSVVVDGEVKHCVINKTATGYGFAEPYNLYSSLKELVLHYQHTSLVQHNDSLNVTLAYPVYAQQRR

Take `C#CCNC(=O)Nc1ccc(-c2ccc3c(N4CCOCC4)nc(N4CCOCC4)nc3c2)cc1` [Compound 7l, 1-(4-(2,4-Dimorpholinoquinazolin-7-yl)phenyl)-3-(prop-2-yn-1-yl)urea]: the melting point is 168 to 170 °C. Besides, the IC50 with MDA-MB-231 is greater than 50 µM. The same compound had an IC50 in the series on keratinocytes HaCaT of 3 µM. The IC50 in the series with MCF7 is greater than 50 µM. Also, the IC50 in the series on fibroblasts L929 is greater than 50 µM. Also, the IC50 in the series with macrophages J774 worked out at 6 µM.
On to `COC(=O)c1ccc(NC(=O)Nc2ccc(-c3ccc4c(N5CCOCC5)nc(N5CCOCC5)nc4c3)cc2)cc1` [Compound 7j, Methyl 4-(3-(4-(2,4-Dimorpholinoquinazolin-7-yl)phenyl)ureido)benzoate], for which the IC50 in the series on MDA-MB-231 was determined as 4.1 µM; with keratinocytes HaCaT, 3 µM; in the series on MCF7, 3.8 µM; in the series with fibroblasts L929, 3 µM; with macrophages J774, 0.8 µM. Also, in the series with SkBr-3 cells, the “Concentration above which all cells died” value was “higher than 10 μM”. In the series with SkBr-3 cells, the “Concentration below which no changes in the cell cycle were found” value was “below 1 μM”.
Turning to `O=C(NCc1ccco1)Nc1ccc(-c2ccc3c(N4CCOCC4)nc(N4CCOCC4)nc3c2)cc1` [Compound 7a, 1-(4-(2,4-Dimorpholinoquinazolin-7-yl)phenyl)-3-(furan-2-ylmethyl)urea], the melting point fell in the range of 184 to 186 °C. In the series on MDA-MB-231, the IC50 was determined as 6.7 µM. In the series on MCF7, this compound registered an IC50 of 6.6 µM.
`N[C@@H](CCCCNC(=O)Nc1ccc(-c2ccc3c(N4CCOCC4)nc(N4CCOCC4)nc3c2)cc1)C(=O)O` [Compound 7e, N6-((4-(2,4-Dimorpholinoquinazolin-7-yl)phenyl)carbamoyl)lysine] had a melting point of 89 to 91 °C. In the series with MDA-MB-231, this compound displayed an IC50 of 24 µM. This compound also gave an IC50 in the series on keratinocytes HaCaT of 12 µM. The IC50 in the series with MCF7 came out at 9.5 µM. This compound also gave an IC50 with fibroblasts L929 of 12 µM. In the series with macrophages J774, this compound registered an IC50 of 12 µM.
`COC[C@H]1OC(=O)c2coc3c2[C@@]1(C)C1=C(C3=O)[C@@H]2CCC(=O)[C@@]2(C)C[C@H]1OC(C)=O` [wortmannin, reference compound]: the “Effect on PI3K/Akt/mTOR signaling pathway” value in [1] was “neither affects PI3K/Akt/mTOR signaling pathway even at 500 nM”.
Consider `O=C(Nc1ccc(-c2ccc3c(N4CCOCC4)nc(N4CCOCC4)nc3c2)cc1)Nc1cccc2ccccc12` [Compound 7i, 1-(4-(2,4-Dimorpholinoquinazolin-7-yl)phenyl)-3-(naphthalen-1-yl)urea], for which the melting point fell in the range of 228 to 230 °C. Besides, the IC50 with MDA-MB-231 stood at 11 µM. In the series on keratinocytes HaCaT, this compound had an IC50 of 6 µM. In the series on MCF7, this compound had an IC50 of 6.1 µM. This compound also registered an IC50 in the series with fibroblasts L929 of 6 µM. This compound also came in with an IC50 with macrophages J774 of 6 µM.
As for `CN(C)C(=N)N=C(N)N` [MF, metformin], the IC50 in the series with MCF7 breast cancer cells is 5800 µM.
In the case of `COc1ccc(CNC(=O)Nc2ccc(-c3ccc4c(N5CCOCC5)nc(N5CCOCC5)nc4c3)cc2)cc1` [Compound 7b, 1-(4-(2,4-Dimorpholinoquinazolin-7-yl)phenyl)-3-(4-methoxybenzyl)urea], the IC50 with MDA-MB-231 is 1.7 µM; in the series with keratinocytes HaCaT, 0.8 µM; with MCF7 it was 1.1 µM; in [2], roughly 50 µM; in the series with fibroblasts L929 it was 12 µM; with macrophages J774, 1.6 µM. The “Concentration above which all cells died” value in the series with SkBr-3 cells is recorded as “higher than 10 μM”. Moreover, in the series on SkBr-3 cells, the “Concentration below which no changes in the cell cycle were found” value is “below 1 μM”.
For the compound `O=C(Nc1ccc(-c2ccc3c(N4CCOCC4)nc(N4CCOCC4)nc3c2)cc1)Nc1ccc([N+](=O)[O-])cc1` [Compound 7f, 1-(4-(2,4-Dimorpholinoquinazolin-7-yl)phenyl)-3-(4-nitrophenyl)urea], the melting point fell in the range of 240 to 242 °C. The compound further showed an IC50 with MDA-MB-231 of 8.8 µM. This compound registered an IC50 in the series with keratinocytes HaCaT of 3 µM. The compound also registered an IC50 in the series with MCF7 of 6.5 µM. The same compound displayed an IC50 in the series with fibroblasts L929 of 12 µM. Also, the IC50 in the series with macrophages J774 was found to be 6 µM.
`O=C(Nc1ccc(-c2ccc3c(N4CCOCC4)nc(N4CCOCC4)nc3c2)cc1)NC1CC1` [Compound 7d, 1-Cyclopropyl-3-(4-(2,4-dimorpholinoquinazolin-7-yl)phenyl)urea]: the melting point is 83 to 85 °C. This compound returned an IC50 with MDA-MB-231 of 10.5 µM. The compound also registered an IC50 in the series on MCF7 of 5.2 µM.
With `Nc1ccc(-c2ccc3c(N4CCOCC4)nc(N4CCOCC4)nc3c2)cc1` [Compound 6, 4-(2,4-Dimorpholinoquinazolin-7-yl)aniline], the melting point fell in the range of 191 to 193 °C.
The compound `O=C(Nc1ccc(-c2ccc3c(N4CCOCC4)nc(N4CCOCC4)nc3c2)cc1)Nc1ccccn1` [Compound 7h, 1-(4-(2,4-Dimorpholinoquinazolin-7-yl)phenyl)-3-(pyridin-2-yl)urea] came in with a melting point of 210 to 212 °C. This compound displayed an IC50 with MDA-MB-231 of 14 µM. In the series with keratinocytes HaCaT, this compound registered an IC50 of 3 µM. The same compound had an IC50 in the series with MCF7 of 13 µM. Moreover, the IC50 with fibroblasts L929 worked out at 12 µM. The compound also gave an IC50 in the series with macrophages J774 of 6 µM.
Consider `CCOC(=O)N1CCN(C(=O)Nc2ccc(-c3ccc4c(N5CCOCC5)nc(N5CCOCC5)nc4c3)cc2)CC1` [Compound 7k, Ethyl 4-((4-(2,4-Dimorpholinoquinazolin-7-yl)phenyl)carbamoyl)piperazine-1-carboxylate], for which the melting point lay in the range of 109 to 111 °C. The compound also yielded an IC50 with MDA-MB-231 of 17 µM. The IC50 with keratinocytes HaCaT came out at 6 µM. The compound also yielded an IC50 in the series on MCF7 of 11 µM. In the series with fibroblasts L929, this compound registered an IC50 of 25 µM. The compound further returned an IC50 in the series with macrophages J774 of 3 µM.
For the compound `O=C(Nc1ccc(F)cc1)Nc1ccc(-c2ccc3c(N4CCOCC4)nc(N4CCOCC4)nc3c2)cc1` [Compound 7g, 1-(4-(2,4-Dimorpholinoquinazolin-7-yl)phenyl)-3-(4-fluorophenyl)urea], the IC50 is 14 µM in the series on MDA-MB-231; 25 µM in the series with keratinocytes HaCaT; 4.9 µM in the series with MCF7; 25 µM in the series on fibroblasts L929; 6 µM in the series with macrophages J774.

Source of the values: paper PMC9503112, “Synthesis, Molecular Docking, In Vitro and In Vivo Studies of Novel Dimorpholinoquinazoline-Based Potential Inhibitors of PI3K/Akt/mTOR Pathway” (International Journal of Molecular Sciences, 2022).
